Here are results for three molecules from paper PMC7494911.

Assay [1] deals with αvβ6-mediated TGFβ activation. In words: cells. The class given is cell-based, human. To be noted: for IC50: Homo sapiens; for activity: read-out: % inhibition of pSmad2 (NHBE cells).
Assay [2] relates to pSmad2 in IPF PCLS. In words: pSmad2 in precision cut lung slices (PCLS) from IPF patients. The following applies: for IPF PCLS pSmad2/tSmad2 ratio: 1 µM compound, individual replicates n=1-3 (Fig 5f). The format is cell-based, human. The protocol: Human fibrotic lung tissue was collected from human explants after transplantation. Tissue which the pathologist deemed suitable for research was inflated with 2–3% low boiling point agarose, with the agarose being allowed to set at 4 °C. PCLS were then cut at 400 μm on a vibrating microtome and cultured in DMEM media.

Assay [3] relates to pSmad2 in lung tissue. In words: Lung tissue pSmad2 in bleomycin-treated mice, single dose. The class given is in vivo, mouse. Here is the method: (§1) For the measurement of concentration-dependent effects of αvβ6 and TGFβR1 inhibitors on TGFβ activation and signaling in NHBE cells, pSmad2 (normalized to GAPDH) was measured. pSmad2 and GAPDH was quantified using the Milliplex TGFβ Signaling Magnetic Bead Panel 6 plex (Merck Millipore, Billerica, MA, USA) luminex assay according to the manufacturer’s instructions. pSmad2 was determined using the same method for in vivo and ex vivo tissue and BAL samples, however data were normalized to tSmad2. tSmad2 was measured in the Pathscan Total Smad2 sandwich ELISA kit (Cell Signaling Technologies, London, UK), according to the manufacturer’s instructions with standard curves generated using recombinant GST-Smad2. βIG-H3 was determined in mouse and human BAL fluid samples using the mouse or human βIG-H3 DuoSet ELISA kit (R&D Systems, Abingdon, USA) respectively, according to the manufacturer’s instructions. PAI-1 was determined in mouse and human BAL fluid samples using the mouse or human PAI-1 Total antigen ELISA kit (Molecular Innovations, Novi, MI, USA) respectively, according to the manufacturer’s instructions.
(§2) Animal welfare followed the requirements of the Home Office Code of Practice for the Housing and Care of Animals used in Scientific Procedures. […] Play tunnels and bedding material were used to provide environmental enrichment. […]

The subject of assay [4] is pSmad2 in BAL cells. The format is in vivo, mouse. To be noted: bleomycin mice. Here is the method: as §1, §2
The mark [5] stands for this setting: 30 mg/kg p.o., 2 h post dosing, in words.
[6] abbreviates: SB-525334 30 mg/kg p.o., 2 h, individual animals, 30 mg/kg.

“And” between values parts separate entries of the source, which are not always exact repeats. Equal values may be shown once. Read-outs that look alike come from different tables or passages of the source.

Regarding `Cc1cc(C)n(-c2cccc([C@H](CC(=O)O)CN3CC[C@@H](CCc4ccc5c(n4)NCCC5)C3)c2)n1` [GSK3008348], the IC50 is 0.15 nM in assay [1] (NHBE cells, read-out: IC50 for inhibition of αvβ6-mediated TGFβ activation (pSmad2)); 0.741 nM in assay [1] (NHBE cells, read-out: pIC50 for inhibition of αvβ6-mediated TGFβ activation (pSmad2) (converted)); about 3 nM in assay [2] (Homo sapiens, IPF PCLS, 48 h, read-out: approximate IC50 for reduction of pSmad2). Further, the activity in assay [1] (Log [GSK3008348] M -9) was 47% and 37% and 58% and 41%; in assay [1] (Log [GSK3008348] M -10.8) it was 108%; in assay [1], 92% and 95%.
With `O=C(O)C[C@@H]1Cc2ccc(OCCCNc3ccccn3)cc2CN(CC(F)(F)F)C1=O` [SB-267268], in assay [2] (IPF PCLS), the “IPF PCLS pSmad2/tSmad2 ratio” value was 0.766 and 0.64 and 0.76. Also, the “pSmad2 levels in IPF PCLS” value in assay [2] (in words) is “Neither compound inhibited pSmad2 levels”.
As to `Cc1cccc(-c2[nH]c(C(C)(C)C)nc2-c2ccc3nccnc3c2)n1` [SB-525334], the activity was 15% and 11% and 10% and 14% in assay [1] (Log [SB-525334] M -6); 138% and 105% and 82% and 100% in assay [1] (Log [SB-525334] M -9); 114% in assay [1] (Log [SB-525334] M -11.4). Moreover, the “pIC50 for inhibition of αvβ6-mediated TGFβ activation (pSmad2)” value in assay [1] (NHBE cells) was determined as 7.28 ± 0.13. Also, the “IPF PCLS pSmad2/tSmad2 ratio” value in assay [2] (IPF PCLS) was 0.063 and 0.062 and 0.055. In assay [2] (SB-525334 1µM), the “% pSmad2 in IPF PCLS” value is 1% and 0% and -1%. Further, the “pSmad2 levels in lung tissue” value in assay [3] (setting [5]) is recorded as “significantly reduce”. Besides, the “Lung tissue pSmad2/tSmad2 ratio” value in assay [3] (setting [6]) is 0.09 and 0.07 and 0.1 and 0.13. The “pSmad2 levels in BAL cells” value in assay [4] (setting [5]) was “significantly reduce”. Besides, in assay [4] (setting [6]), the “BAL cell pSmad2/tSmad2 ratio” value was 1.33 and 0.67 and 0.7 and 1.48 and 0.61 and 0.44 and 2.35 and 1.1 and 1.
